Our source for the Kd values is ChEMBL document CHEMBL3991601, “The target landscape of clinical kinase drugs” (Science, 2017).

For experiment [1], the target named is Ephrin type-A receptor 2 (Homo sapiens, UniProt P29317).
Experiment [2] addresses T1, Ephrin type-B receptor 2 (Homo sapiens, UniProt P29323).
T1 sequence (P29323 whole entry): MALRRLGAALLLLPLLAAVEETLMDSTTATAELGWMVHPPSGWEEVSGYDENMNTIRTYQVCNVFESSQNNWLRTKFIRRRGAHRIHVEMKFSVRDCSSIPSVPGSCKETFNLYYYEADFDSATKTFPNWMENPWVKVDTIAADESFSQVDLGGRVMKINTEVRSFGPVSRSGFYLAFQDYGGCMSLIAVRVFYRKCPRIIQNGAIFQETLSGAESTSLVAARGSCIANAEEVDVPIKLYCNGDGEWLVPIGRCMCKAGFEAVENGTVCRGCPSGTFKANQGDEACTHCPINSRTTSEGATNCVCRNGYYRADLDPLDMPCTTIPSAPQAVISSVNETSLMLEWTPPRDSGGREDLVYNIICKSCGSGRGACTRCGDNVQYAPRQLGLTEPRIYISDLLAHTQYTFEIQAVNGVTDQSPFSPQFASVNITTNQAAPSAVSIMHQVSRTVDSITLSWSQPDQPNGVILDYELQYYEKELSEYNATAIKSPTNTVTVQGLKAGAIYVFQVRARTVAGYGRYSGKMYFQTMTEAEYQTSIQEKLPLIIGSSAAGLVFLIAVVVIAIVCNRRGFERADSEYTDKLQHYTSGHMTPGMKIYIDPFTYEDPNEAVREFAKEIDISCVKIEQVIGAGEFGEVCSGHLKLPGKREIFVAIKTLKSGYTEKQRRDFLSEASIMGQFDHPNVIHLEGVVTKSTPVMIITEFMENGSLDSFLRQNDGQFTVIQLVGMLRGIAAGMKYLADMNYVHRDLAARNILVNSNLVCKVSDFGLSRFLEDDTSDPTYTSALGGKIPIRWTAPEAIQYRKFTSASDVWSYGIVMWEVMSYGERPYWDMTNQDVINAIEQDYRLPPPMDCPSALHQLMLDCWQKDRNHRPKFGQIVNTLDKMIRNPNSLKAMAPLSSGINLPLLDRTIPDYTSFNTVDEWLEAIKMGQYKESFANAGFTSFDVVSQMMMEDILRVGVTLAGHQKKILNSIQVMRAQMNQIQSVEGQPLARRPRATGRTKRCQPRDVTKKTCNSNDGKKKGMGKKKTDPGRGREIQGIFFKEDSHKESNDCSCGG

In experiment [3] the target is Glycogen synthase kinase-3 beta (Homo sapiens, UniProt P49841).
Experiment [4] addresses Inosine-5'-monophosphate dehydrogenase 2 (Homo sapiens, UniProt P12268).
For experiment [5], the target named is T2, Serine/threonine-protein kinase NLK (Homo sapiens, UniProt Q9UBE8).
T2 sequence (Q9UBE8 whole entry): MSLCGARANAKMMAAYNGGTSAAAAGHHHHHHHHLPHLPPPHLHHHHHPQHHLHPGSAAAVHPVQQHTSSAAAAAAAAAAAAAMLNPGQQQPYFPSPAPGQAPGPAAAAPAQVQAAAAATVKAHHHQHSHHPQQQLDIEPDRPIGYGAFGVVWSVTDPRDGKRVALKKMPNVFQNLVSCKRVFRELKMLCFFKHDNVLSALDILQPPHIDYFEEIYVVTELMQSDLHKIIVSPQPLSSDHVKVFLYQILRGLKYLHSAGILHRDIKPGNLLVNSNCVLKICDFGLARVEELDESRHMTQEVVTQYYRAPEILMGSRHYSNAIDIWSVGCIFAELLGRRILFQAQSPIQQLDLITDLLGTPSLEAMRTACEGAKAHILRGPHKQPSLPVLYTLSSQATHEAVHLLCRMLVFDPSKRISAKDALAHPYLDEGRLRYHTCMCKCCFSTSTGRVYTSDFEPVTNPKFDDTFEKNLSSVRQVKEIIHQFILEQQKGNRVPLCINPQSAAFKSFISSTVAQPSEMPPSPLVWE

Experiment [6] deals with T3, ATP-dependent 6-phosphofructokinase, platelet type (Homo sapiens, UniProt Q01813).
T3 sequence (Q01813 whole entry): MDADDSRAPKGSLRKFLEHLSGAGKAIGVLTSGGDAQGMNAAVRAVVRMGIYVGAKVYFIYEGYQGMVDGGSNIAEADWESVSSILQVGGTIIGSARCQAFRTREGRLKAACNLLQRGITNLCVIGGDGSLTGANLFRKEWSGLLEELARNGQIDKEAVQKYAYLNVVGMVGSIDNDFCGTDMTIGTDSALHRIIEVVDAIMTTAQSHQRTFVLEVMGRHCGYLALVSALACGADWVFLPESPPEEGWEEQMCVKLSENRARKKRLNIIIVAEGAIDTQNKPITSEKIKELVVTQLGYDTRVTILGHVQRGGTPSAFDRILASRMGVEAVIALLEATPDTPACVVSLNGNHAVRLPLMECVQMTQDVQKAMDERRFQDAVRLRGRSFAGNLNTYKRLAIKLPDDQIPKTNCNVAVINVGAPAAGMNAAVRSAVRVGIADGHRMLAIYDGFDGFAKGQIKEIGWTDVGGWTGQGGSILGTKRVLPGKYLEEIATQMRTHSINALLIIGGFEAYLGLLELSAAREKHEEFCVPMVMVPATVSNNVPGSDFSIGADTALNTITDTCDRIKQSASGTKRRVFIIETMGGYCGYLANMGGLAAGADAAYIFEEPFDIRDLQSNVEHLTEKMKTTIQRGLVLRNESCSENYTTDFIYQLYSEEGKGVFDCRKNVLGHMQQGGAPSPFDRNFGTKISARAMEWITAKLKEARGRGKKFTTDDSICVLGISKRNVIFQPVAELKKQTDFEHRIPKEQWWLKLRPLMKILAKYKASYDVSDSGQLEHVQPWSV

Experiment [7] concerns the target Protein-tyrosine kinase 6 (Homo sapiens, UniProt Q13882).
Experiment [8] deals with Serine/threonine-protein kinase 16 (Homo sapiens, UniProt O75716).
For experiment [9], the target named is DNA topoisomerase 2-alpha (Homo sapiens, UniProt P11388).

The source made the active and inactive calls. Rule as the data show it, for most assays here: actives have a measured Kd and inactives only a lower limit.
Also: in the data inactive means no Kd found up to 30 µM.

Sequence of Protein-tyrosine kinase 6 (Q13882 whole entry): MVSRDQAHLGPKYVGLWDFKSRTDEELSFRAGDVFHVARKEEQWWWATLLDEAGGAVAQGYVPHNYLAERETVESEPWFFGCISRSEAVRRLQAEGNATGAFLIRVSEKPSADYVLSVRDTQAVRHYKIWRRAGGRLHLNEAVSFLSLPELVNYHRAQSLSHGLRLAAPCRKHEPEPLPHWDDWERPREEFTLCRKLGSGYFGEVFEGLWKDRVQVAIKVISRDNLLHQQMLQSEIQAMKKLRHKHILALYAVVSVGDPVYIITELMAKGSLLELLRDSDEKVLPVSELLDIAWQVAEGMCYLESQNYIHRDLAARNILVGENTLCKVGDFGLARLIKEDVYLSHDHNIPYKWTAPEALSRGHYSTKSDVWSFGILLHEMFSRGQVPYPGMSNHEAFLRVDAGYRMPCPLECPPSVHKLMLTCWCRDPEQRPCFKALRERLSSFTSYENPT
Sequence of Ephrin type-A receptor 2 (P29317 whole entry): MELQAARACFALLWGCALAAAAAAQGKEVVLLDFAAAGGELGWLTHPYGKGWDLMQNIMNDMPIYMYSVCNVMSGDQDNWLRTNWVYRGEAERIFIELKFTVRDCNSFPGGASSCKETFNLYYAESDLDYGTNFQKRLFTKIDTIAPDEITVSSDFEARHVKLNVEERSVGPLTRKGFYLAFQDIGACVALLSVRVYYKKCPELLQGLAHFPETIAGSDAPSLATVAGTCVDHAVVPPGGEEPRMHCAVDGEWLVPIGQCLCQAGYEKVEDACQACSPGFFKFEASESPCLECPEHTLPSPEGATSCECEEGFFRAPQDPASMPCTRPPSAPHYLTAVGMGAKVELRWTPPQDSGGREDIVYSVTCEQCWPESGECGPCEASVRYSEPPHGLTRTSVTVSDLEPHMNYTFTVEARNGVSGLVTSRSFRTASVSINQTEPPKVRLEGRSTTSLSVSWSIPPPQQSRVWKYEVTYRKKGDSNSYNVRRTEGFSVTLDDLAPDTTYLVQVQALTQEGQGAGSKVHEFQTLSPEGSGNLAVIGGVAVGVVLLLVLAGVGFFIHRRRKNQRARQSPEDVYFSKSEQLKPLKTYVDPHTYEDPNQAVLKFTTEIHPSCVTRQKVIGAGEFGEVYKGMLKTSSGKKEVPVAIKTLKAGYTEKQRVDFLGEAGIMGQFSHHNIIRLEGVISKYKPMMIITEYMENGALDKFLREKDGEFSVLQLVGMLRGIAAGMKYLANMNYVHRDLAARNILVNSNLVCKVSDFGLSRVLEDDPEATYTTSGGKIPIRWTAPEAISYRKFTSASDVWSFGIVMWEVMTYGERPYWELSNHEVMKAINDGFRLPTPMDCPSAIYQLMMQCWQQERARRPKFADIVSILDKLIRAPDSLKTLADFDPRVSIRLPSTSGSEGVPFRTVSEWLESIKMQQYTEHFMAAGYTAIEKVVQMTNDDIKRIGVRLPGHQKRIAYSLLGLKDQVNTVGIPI
Sequence of DNA topoisomerase 2-alpha (P11388 whole entry): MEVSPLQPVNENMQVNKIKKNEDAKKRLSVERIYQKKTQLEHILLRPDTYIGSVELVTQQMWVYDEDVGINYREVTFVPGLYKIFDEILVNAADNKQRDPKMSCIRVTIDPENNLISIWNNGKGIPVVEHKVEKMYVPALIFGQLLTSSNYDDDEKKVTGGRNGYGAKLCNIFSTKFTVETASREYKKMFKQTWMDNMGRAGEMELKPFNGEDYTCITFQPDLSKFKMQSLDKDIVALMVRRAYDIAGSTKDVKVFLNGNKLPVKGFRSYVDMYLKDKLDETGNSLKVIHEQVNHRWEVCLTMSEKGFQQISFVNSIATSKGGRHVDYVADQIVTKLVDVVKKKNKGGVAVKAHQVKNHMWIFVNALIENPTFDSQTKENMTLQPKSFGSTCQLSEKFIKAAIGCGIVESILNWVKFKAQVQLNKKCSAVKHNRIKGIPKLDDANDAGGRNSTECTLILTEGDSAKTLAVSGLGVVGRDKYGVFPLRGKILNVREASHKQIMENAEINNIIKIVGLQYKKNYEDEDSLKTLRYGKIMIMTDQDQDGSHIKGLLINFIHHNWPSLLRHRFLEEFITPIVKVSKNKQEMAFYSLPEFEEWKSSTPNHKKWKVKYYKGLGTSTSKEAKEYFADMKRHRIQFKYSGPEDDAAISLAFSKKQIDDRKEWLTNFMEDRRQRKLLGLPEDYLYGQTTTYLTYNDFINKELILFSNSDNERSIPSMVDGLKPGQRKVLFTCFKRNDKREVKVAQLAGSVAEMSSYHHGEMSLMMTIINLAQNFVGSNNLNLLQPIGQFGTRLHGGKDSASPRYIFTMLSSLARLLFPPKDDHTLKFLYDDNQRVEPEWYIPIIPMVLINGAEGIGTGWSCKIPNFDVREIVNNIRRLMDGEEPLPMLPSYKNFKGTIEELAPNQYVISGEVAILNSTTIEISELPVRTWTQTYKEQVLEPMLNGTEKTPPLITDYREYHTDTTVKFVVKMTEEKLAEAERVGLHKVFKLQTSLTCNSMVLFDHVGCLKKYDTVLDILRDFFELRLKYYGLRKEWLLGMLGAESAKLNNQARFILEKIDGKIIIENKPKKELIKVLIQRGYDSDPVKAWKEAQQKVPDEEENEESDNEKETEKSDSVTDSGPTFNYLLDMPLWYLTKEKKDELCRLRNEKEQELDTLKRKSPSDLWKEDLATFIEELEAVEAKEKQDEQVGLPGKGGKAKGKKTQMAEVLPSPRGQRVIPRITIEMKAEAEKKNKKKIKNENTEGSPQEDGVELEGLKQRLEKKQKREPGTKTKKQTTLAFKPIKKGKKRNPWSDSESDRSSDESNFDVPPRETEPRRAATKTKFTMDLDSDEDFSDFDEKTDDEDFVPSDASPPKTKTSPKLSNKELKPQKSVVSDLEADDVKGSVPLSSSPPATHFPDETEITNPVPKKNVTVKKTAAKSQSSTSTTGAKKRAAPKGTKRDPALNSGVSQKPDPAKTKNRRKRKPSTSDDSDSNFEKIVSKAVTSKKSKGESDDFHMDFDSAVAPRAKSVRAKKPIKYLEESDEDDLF
Sequence of Glycogen synthase kinase-3 beta (P49841 whole entry): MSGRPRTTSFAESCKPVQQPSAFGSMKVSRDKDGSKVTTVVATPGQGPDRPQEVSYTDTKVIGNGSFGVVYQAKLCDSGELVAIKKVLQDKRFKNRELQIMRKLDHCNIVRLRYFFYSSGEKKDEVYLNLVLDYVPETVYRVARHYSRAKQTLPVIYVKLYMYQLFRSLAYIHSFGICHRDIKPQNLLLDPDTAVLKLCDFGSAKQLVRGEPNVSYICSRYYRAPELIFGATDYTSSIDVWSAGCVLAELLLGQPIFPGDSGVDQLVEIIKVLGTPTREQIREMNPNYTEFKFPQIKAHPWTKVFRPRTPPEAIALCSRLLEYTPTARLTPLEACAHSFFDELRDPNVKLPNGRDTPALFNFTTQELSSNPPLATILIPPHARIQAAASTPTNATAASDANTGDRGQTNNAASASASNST
Sequence of Serine/threonine-protein kinase 16 (O75716 whole entry): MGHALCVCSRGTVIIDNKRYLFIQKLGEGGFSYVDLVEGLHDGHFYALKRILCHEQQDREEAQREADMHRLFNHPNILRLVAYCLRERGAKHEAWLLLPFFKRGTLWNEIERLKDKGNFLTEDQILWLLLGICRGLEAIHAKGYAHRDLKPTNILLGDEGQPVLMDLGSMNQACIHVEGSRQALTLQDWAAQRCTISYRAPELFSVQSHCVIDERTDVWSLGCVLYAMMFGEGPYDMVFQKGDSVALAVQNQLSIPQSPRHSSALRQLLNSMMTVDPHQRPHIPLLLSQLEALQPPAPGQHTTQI

The Kd is the equilibrium constant for the complex coming apart. On to `N[C@@H]1CCCN(c2c(/C=C3\SC(=O)NC3=O)cccc2-c2ccccc2)C1`, for which the Kd in experiment [1], in experiment [2], in [3], in experiment [4], in experiment [5] and in [6] was > 30 µM (inactive) throughout. The Kd in experiment [7], in experiment [8] and in experiment [9] was > 30 µM (inactive) in each case.

Consider `COc1cc(OC)c(/C=C/S(=O)(=O)Cc2ccc(OC)c(NCC(=O)O)c2)c(OC)c1` [RIGOSERTIB], for which the Kd in [1], in experiment [2], in [3], in experiment [4], in experiment [5] and in experiment [6] was > 30 µM (inactive) throughout. Moreover, the Kd in [7], in experiment [8] and in [9] was > 30 µM (inactive) in each case.

Regarding `CC[C@@H]1C(=O)N(C)c2cnc(Nc3ccc(C(=O)N[C@H]4CC[C@H](N5CCN(CC6CC6)CC5)CC4)cc3OC)nc2N1C(C)C` [VOLASERTIB], the Kd in [1], in experiment [2], in experiment [3], in experiment [4], in experiment [5] and in experiment [6] was > 30 µM (inactive) each time. Moreover, the Kd in experiment [7], in experiment [8] and in experiment [9] was > 30 µM (inactive) in each case.

In the case of `Cc1cc(-c2cc(O)ccc2Cl)cc2nnc(Nc3ccc(OCCN4CCCC4)cc3)nc12`, the Kd in experiment [1] is 0.001 µM (active); in [2], 0.002 µM (active); in experiment [3], > 30 µM (inactive); in [4] it was > 30 µM (inactive); in [5] it was 0.003 µM (active); in experiment [6] it was > 30 µM (inactive). The Kd in experiment [7], in experiment [8] and in experiment [9] was > 30 µM (inactive) in each case.

For the molecule `CCn1c(=O)c(-c2cc[nH]n2)cc2c(C)nc(N)nc21` [VOXTALISIB], the Kd in [1], in experiment [2], in experiment [3], in experiment [4], in experiment [5] and in [6] was > 30 µM (inactive) throughout. Also, the Kd in experiment [7], in [8] and in [9] was > 30 µM (inactive) each time.

Take `Cn1ncc(Cl)c1-c1cc(C(=O)N[C@H](CN)Cc2cccc(F)c2)sc1Cl` [AFURESERTIB]: the Kd in experiment [1], in experiment [2], in experiment [3], in [4], in experiment [5] and in [6] was > 30 µM (inactive) each time. Further, the Kd in experiment [7], in experiment [8] and in experiment [9] was > 30 µM (inactive) throughout.

In the case of `CN1CCC(CNc2ccc3ncc(-c4cccc(OC(F)(F)F)c4)n3n2)CC1` [SGI-1776], the Kd in [1], in experiment [2], in [3], in experiment [4], in experiment [5] and in experiment [6] was > 30 µM (inactive) throughout. Besides, the Kd in experiment [7], in experiment [8] and in [9] was > 30 µM (inactive) in each case.

In the case of `CC[C@H](Nc1ncnc2[nH]cnc12)c1nc2cccc(F)c2c(=O)n1-c1ccccc1` [IDELALISIB], the Kd in experiment [1], in [2], in experiment [3], in experiment [4], in [5] and in experiment [6] was > 30 µM (inactive) throughout. For the same molecule, the Kd in experiment [7], in [8] and in experiment [9] was > 30 µM (inactive) in each case.

Take `COC(=O)N[C@@H](C)CNc1nccc(-c2cn(C(C)C)nc2-c2cc(Cl)cc(NS(C)(=O)=O)c2F)n1` [ENCORAFENIB]: the Kd in experiment [1] is > 30 µM (inactive); in [2], > 30 µM (inactive); in experiment [3], 0.425 µM (active); in experiment [4], > 30 µM (inactive); in experiment [5], 0.732 µM (active); in [6], > 30 µM (inactive). The Kd in experiment [7], in [8] and in [9] was > 30 µM (inactive) throughout.

For the molecule `COC(=O)[C@@]1(O)C[C@H]2O[C@]1(C)n1c3ccccc3c3c4c(c5c6ccccc6n2c5c31)C(=O)NC4` [K-252A], the Kd in experiment [1], in experiment [2], in experiment [3], in [4], in experiment [5] and in experiment [6] was > 30 µM (inactive) in each case. Further, the Kd in experiment [7], in experiment [8] and in [9] was > 30 µM (inactive) in each case.

With `O=C(c1ccc(F)c(F)c1Nc1ccc(I)cc1F)N1CC(O)([C@@H]2CCCCN2)C1` [COBIMETINIB], the Kd in experiment [1], in [2], in experiment [3], in [4], in experiment [5] and in [6] was > 30 µM (inactive) in each case. Besides, the Kd in experiment [7], in experiment [8] and in experiment [9] was > 30 µM (inactive) throughout.

For `Cc1ccc(S(=O)(=O)Nc2nc3ccccc3nc2Nc2ccc3nsnc3c2)cc1`, the Kd in experiment [1], in experiment [2], in experiment [3], in [4], in experiment [5] and in experiment [6] was > 30 µM (inactive) each time. Further, the Kd in [7], in [8] and in experiment [9] was > 30 µM (inactive) throughout.
